According to publication PMC1664607 (PLoS Medicine, 2006):
Converted amounts (≈) assume the structure as drawn. Read-outs that look alike come from different tables or passages of the source.

Legend:
S. typhimurium TA98 = experiment: Bacterial reverse mutation (BRM) test; format: cell-based
Protocol: (§1) The BRM test was performed in accordance with OECD Guideline 471 using Salmonella tyiphimurium TA98, TA100, TA1535, and TA1537, and Escherichia coli WP2 uvrA [11]. Each bacterial strain was pre-cultured at 37 °C for 18 h using a nutrient broth (Nissui Pharmaceutical; http://www.nissui-pharm.co.jp/index_e.html). After adjustment to 2.4 at OD660 nm, each bacterial suspension was added to a test tube containing the designated compound in the absence or presence of rat liver microsome (S9) mix. After a 20-min incubation at 37 °C, top agar was added to each test tube and the contents were poured into minimum essential medium (Oriental Yeast; http://www.oyc.co.jp/e/index.htm). The number of revertants was counted 48 h after incubation at 37 °C.

S. typhimurium TA100 = experiment: Bacterial reverse mutation (BRM) test; format: cell-based
Protocol: as §1

S. typhimurium TA1535 = experiment: Bacterial reverse mutation (BRM) test; format: cell-based; conditions: S9 mix +; positive control 2AA 2 μg/plate
Protocol: as §1

E. coli WP2 uvr A = experiment: Bacterial reverse mutation (BRM) test; format: cell-based
Protocol: as §1

S. typhimurium TA1537 = experiment: Bacterial reverse mutation (BRM) test; format: cell-based
Protocol: as §1

CYP1A1/2 = experiment: 7-Ethoxyresorufin O-deethylation in human liver microsomes; format: in vitro ADME; conditions: 100 μM; 0.5 μM 7-ethoxyresorufin
[1] = system: M. tuberculosis ATCC 35837 (H37Rv-E-R); experiment: microbe, parasite or virus in culture; format: cell-based; conditions: Mycobacterium tuberculosis, 336 h
[2] = system: M. tuberculosis ATCC 35822 (H37Rv-H-R); experiment: microbe, parasite or virus in culture; format: cell-based; conditions: Mycobacterium tuberculosis, 336 h
[3] = system: M. tuberculosis ATCC 35820 (H37Rv-S-R); experiment: microbe, parasite or virus in culture; format: cell-based; conditions: Mycobacterium tuberculosis, 336 h
[4] = system: M. tuberculosis ATCC 25618 (H37Rv); experiment: Susceptibility testing (agar dilution MIC); format: cell-based; conditions: Mycobacterium tuberculosis, 336 h
[5] = system: M. tuberculosis ATCC 35838 (H37Rv-R-R); experiment: microbe, parasite or virus in culture; format: cell-based; conditions: Mycobacterium tuberculosis, 336 h
[6] = system: M. tuberculosis ATCC 35812 (Kurono); experiment: Susceptibility testing (agar dilution MIC); format: cell-based; conditions: Mycobacterium tuberculosis, ATCC35812, 336 h
[7] = Plasma levels in an experimental mouse model of TB; conditions: in vivo, po
M. tuberculosis Kurono = experiment: Therapeutic efficacy in an experimental mouse model of chronic TB; format: in vivo, ICR mice; conditions: for Log of Viable Counts/Lung: 672 h; for Dose that could produce a CFU reduction of at least 95%: lung; for Dose that could produce a CFU reduction of at least 95% / Dose groups that showed a significant decrease in pulmonary viable bacterial count when compared with the vehicle control group: once daily for 28 d
[8] = system: clinically isolated M. tuberculosis; experiment: microbe, parasite or virus in culture; format: cell-based; conditions: Mycobacterium tuberculosis; read-out: MIC90
[9] = system: mycolic acid synthesis in M. bovis BCG; experiment: microbe, parasite or virus in culture; format: cell-based; conditions: Mycobacterium tuberculosis variant bovis BCG, BCG
[10] = system: intracellular M. tuberculosis H37Rv in THP-1 cells; experiment: Activity against intracellular mycobacteria, 4-h pulsed exposure; format: cell-based, M. tuberculosis; human THP-1 cells; conditions: further 68-h culture
[11] = S9 mix −, positive control AF-2 0.01 μg/plate
[12] = 7H11 agar, 37 °C, 14 d, read-out: MIC

For `Nc1ccc2cc3ccccc3cc2c1` [2AA, 2-aminoanthracene], the Revertants/Plate (S. typhimurium TA98; S9 mix +, positive control 2AA 0.5 μg/plate) was 36 92 Revertants/Plate, the Revertants/Plate (S. typhimurium TA100; S9 mix +, positive control 2AA 1 μg/plate) was 108 1103 Revertants/Plate and the Revertants/Plate (S. typhimurium TA1535) was 6 188 Revertants/Plate. For the same compound, the Revertants/Plate (E. coli WP2 uvr A; S9 mix +, positive control 2AA 10 μg/plate) was 33 1122 Revertants/Plate and the Revertants/Plate (S. typhimurium TA1537; S9 mix +, positive control 2AA 2 μg/plate) was 81 238 Revertants/Plate.

For `O=c1cc(-c2ccccc2)oc2c1ccc1ccccc12` [7,8-Benzoflavone, 7,8-benzoflavone], the “Percent of Control” value (CYP1A1/2) was 3.8% of Control.

In the case of `Nc1c2ccccc2nc2ccccc12` [ACR, 9-aminoacridine], the Revertants/Plate (S. typhimurium TA1537; S9 mix −, positive control ACR 80 μg/plate) is reported as 64 953 Revertants/Plate.

For `NC(=O)C(=Cc1ccc([N+](=O)[O-])o1)c1ccco1` [AF-2, 2-(2-furyl)-3-(5-nitro-2-furyl)acrylamide], the Revertants/Plate (S. typhimurium TA98; S9 mix −, positive control AF-2 0.1 μg/plate) was 29 473 Revertants/Plate, the Revertants/Plate (S. typhimurium TA100; [11]) was 98 547 Revertants/Plate and the Revertants/Plate (E. coli WP2 uvr A; [11]) was 30 225 Revertants/Plate.

`CCC1Cn2cc([N+](=O)[O-])nc2O1` (stereo not shown) [CGI-17341] gave an MIC [1] of 0.2 µg/mL (≈ 1.09 µM), an MIC [2] of 0.2 µg/mL (≈ 1.09 µM) and an MIC [3] of 0.2 µg/mL (≈ 1.09 µM). The MIC [4, 12] was 0.2 µg/mL (≈ 1.09 µM), the MIC [5] was 0.05 µg/mL (≈ 0.273 µM) and the MIC [6, 12] was 0.2 µg/mL (≈ 1.09 µM).

Compound `CC[C@@H](CO)NCCN[C@@H](CC)CO` [EB, ethambutol] has an MIC [1] of 50 µg/mL (≈ 245 µM), an MIC [2] of 3.13 µg/mL (≈ 15.3 µM) and an AUC(0-t) [7] of 12200 ng·h/mL. The concentration at 0.083 h [7] was 55 ± 49 ng/mL, the concentration at 0.25 h [7] was 1300 ± 939 ng/mL and the concentration at 0.5 h [7] was 3170 ± 392 ng/mL. It also gave a concentration at 1 h [7] of 3510 ± 1130 ng/mL, a concentration at 2 h [7] of 2510 ± 1010 ng/mL and a concentration at 4 h [7] of 1020 ± 202 ng/mL. The AUC(0-t) ([7]; 100 mg/kg) was 12100 ng·h/mL, the Cmax ([7]; 100 mg/kg) was 3510 ng/mL and the Tmax ([7]; 100 mg/kg) was 1 h. It also gave a half-life ([7]; 100 mg/kg) of 2.8 h, an MIC [3] of 3.13 µg/mL (≈ 15.3 µM) and an MIC [4] of 1.56 µg/mL (≈ 7.64 µM). For the same compound, the “Log of Viable Counts/Lung” value (M. tuberculosis Kurono; 20 mg/kg) was 6.923 ± 0.721^a:NS, b:NS, the “Log of Viable Counts/Lung” value (M. tuberculosis Kurono; 40 mg/kg) was 6.696 ± 0.382^a:NS, b:NS and the “Log of Viable Counts/Lung” value (M. tuberculosis Kurono; 80 mg/kg) was 6.429 ± 0.475^a:NS, b:NS. For the same compound, the “Log of Viable Counts/Lung” value (M. tuberculosis Kurono; 160 mg/kg) was 5.642 ± 0.120^a:**, b:**, the “Dose that could produce a CFU reduction of at least 95%” value (M. tuberculosis Kurono) was > 160 mg/kg and the “Dose groups that showed a significant decrease in pulmonary viable bacterial count when compared with the vehicle control group” value (M. tuberculosis Kurono) was 160 mg/kg. It also gave an MIC [5] of 1.56 µg/mL (≈ 7.64 µM), an MIC90 [8] of 3.64 µg/mL (≈ 17.8 µM) and an MIC [6] of 3.13 µg/mL (≈ 15.3 µM).

For `Cc1nc2c([nH]1)c(=O)n(C)c(=O)n2Cc1ccco1` [Furafylline, furafylline], the “Percent of Control” value (CYP1A1/2) was 32.3% of Control.

With `NNC(=O)c1ccncc1` [INH, isoniazid] the MIC [1] was 0.2 µg/mL (≈ 1.46 µM), the MIC [2] was > 100 µg/mL and the concentration at 0.083 h [7] was 2170 ± 435 ng/mL. For the same compound, the concentration at 0.25 h [7] was 3060 ± 779 ng/mL, the concentration at 0.5 h [7] was 2280 ± 390 ng/mL and the concentration at 1 h [7] was 1920 ± 478 ng/mL. For the same compound, the concentration at 2 h [7] was 740 ± 202 ng/mL, the concentration at 4 h [7] was 253 ± 57 ng/mL and the AUC(0-t) ([7]; 10 mg/kg) was 4550 ng·h/mL. It also gave a Cmax ([7]; 10 mg/kg) of 3060 ng/mL, a Tmax ([7]; 10 mg/kg) of 0.25 h and an MIC [3] of 0.1 µg/mL (≈ 0.729 µM). For the same compound, the MIC [4] was 0.1 µg/mL (≈ 0.729 µM), the IC50 ([9]; 1 h, read-out: IC50, Fatty acid) was > 4 µg/mL and the IC50 ([9]; 1 h, read-out: IC50, Keto-mycolic acid) was 0.69 µg/mL (≈ 5.03 µM). The IC50 ([9]; 1 h, read-out: IC50, Methoxy-mycolic acid) was 0.63 µg/mL (≈ 4.59 µM), the IC50 ([9]; 1 h, read-out: IC50, α-Mycolic acid) was 1.85 µg/mL (≈ 13.5 µM) and the IC50 ([9]; read-out: IC50 values, all mycolic acid subclasses) was 0.63 to 1.85 µg/mL (≈ 4.59 to 13.5 µM). The “Activity against intracellular M. tuberculosis H37Rv” value [10] was “poor activity”, the “Log of Viable Counts/Lung” value (M. tuberculosis Kurono; 1.25 mg/kg) was 6.702 ± 0.237^c:NS, d:NS and the “Log of Viable Counts/Lung” value (M. tuberculosis Kurono; 2.5 mg/kg) was 5.751 ± 0.358^c:**, d:*. For the same compound, the “Log of Viable Counts/Lung” value (M. tuberculosis Kurono; 5 mg/kg) was 4.944 ± 0.760^c:**, d:**, the “Log of Viable Counts/Lung” value (M. tuberculosis Kurono; 10 mg/kg) was 4.434 ± 0.319^c:**, d:** and the “Log of Viable Counts/Lung” value (M. tuberculosis Kurono; 20 mg/kg) was 4.595 ± 0.452^c:**, d:**. For the same compound, the “Dose that could produce a CFU reduction of at least 95%” value (M. tuberculosis Kurono) was 5 mg/kg, the “Dose groups that showed a significant decrease in pulmonary viable bacterial count when compared with the vehicle control group” value (M. tuberculosis Kurono) was 2.5, 5, 10, and 20 mg/kg and the MIC [5] was 0.1 µg/mL (≈ 0.729 µM). The MIC90 [8] was 0.099 µg/mL (≈ 0.722 µM) and the MIC [6] was 0.1 µg/mL (≈ 0.729 µM).
